Calls of active or inactive are those of the source.
How the values were obtained:
Macrophage [1] = assay: Inhibition of LPS-induced IkappaBalpha mRNA expression in mouse alveolar macrophages after 90 mins by Northern blot analysis; format: functional, cell-based
Macrophage [2] = assay: Inhibition of LPS-induced RANTES mRNA expression in mouse alveolar macrophages after 90 mins by Northern blot analysis; format: functional, cell-based
Mus musculus = species: Mus musculus; assay: Inhibition of LPS-induced IKK activity in mouse BMDM assessed as GST-IkappaBalpha phosphorylation after 5 mins by immunoprecipitation kinase assay
BMDM [3] = assay: Inhibition of LPS-induced MCP-1 mRNA expression in mouse BMDM up to 3 hrs by Northern blot analysis; format: functional, cell-based
BMDM [4] = assay: Inhibition of heat-killed Staphylococcus aureus-induced IkappaBalpha mRNA expression in mouse BMDM by Northern blot analysis; format: functional
BMDM [5] = assay: Inhibition of heat-killed Staphylococcus aureus-induced B7h mRNA expression in mouse BMDM by Northern blot analysis; format: functional
[6] = biological target: Transcription factor p65 (Mus musculus) (UniProt Q04207); assay: Inhibition of LPS-induced RelA phosphorylation in [32P]orthophosphate metabolically labelled mouse BMDM assessed as phosphorylated IkappaBbeta/RelA binding measured up to 120 mins in absence of IkappaBalpha by SDS-PAGE and autoradiography
Sequence of Transcription factor p65 (Mus musculus) (Q04207 whole entry): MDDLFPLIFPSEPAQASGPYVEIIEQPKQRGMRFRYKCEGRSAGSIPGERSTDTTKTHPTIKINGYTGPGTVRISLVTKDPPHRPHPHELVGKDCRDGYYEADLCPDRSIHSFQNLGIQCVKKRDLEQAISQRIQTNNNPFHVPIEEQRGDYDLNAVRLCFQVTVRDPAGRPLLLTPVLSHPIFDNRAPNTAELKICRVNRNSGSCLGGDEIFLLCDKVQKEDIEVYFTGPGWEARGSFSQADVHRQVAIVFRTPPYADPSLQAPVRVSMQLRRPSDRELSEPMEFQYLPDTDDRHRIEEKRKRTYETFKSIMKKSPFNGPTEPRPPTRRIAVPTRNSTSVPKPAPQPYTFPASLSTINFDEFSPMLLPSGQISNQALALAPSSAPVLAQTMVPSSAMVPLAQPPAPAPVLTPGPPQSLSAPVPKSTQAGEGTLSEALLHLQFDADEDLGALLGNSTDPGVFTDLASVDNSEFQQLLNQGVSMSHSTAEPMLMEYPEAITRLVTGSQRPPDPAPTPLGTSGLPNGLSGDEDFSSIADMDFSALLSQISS

MEF = assay: Inhibition of LPS-induced IP-10 mRNA expression in MEF after 90 mins by Northern blot analysis; format: functional, cell-based; conditions: Mus musculus
BMDM [7] = assay: Inhibition of heat-killed Staphylococcus aureus-induced MCP-1 mRNA expression in mouse BMDM by Northern blot analysis; format: functional, cell-based

Measured: Activity

CCCCCCCCCC(=O)CC(=O)N[C@H]1CCOC1=O
active: Macrophage [1] Dose-dependent effect | Macrophage [2] Dose-dependent effect | Mus musculus | BMDM [3] Dose-dependent effect | BMDM [4] | BMDM [5] | [6] | MEF Dose-dependent effect | BMDM [7]

— ChEMBL document CHEMBL1152866, “Modulation of gene expression via disruption of NF-kappaB signaling by a bacterial small molecule” (Science, 2008)
